Measurements as given in patent publication US20060264347A1, “Antimicrobial composition” (priority 2005, published 2006).

Key:
[1] = test system: S. aureus; test: Zone of inhibition assay of coated sutures; format: cell-based; conditions: coated 2-0 polyglactin 910 suture, 37° C. 48 hr
Procedure: (§1) A series of USP standard size 2-0 uncoated polyglactin 910 sutures were coated with coating compositions containing LAE. LAE stock solution was made in ethanol at the concentration of 10%. The coating solutions were made by dissolving a L(−)lactide/glycolide copolymer containing 65 mole % lactide and 35 mole % glycolide (4.5%) and calcium stearate (4.5%) in ethyl acetate. Then, the LAE stock solution was added to the coating solution at sequential concentrations and mixed thoroughly. The sutures were hand coated by dipping into the coating solution containing antimicrobial composition and then air dried at room temperature for 8 hr. The antimicrobial efficacy was evaluated by zone of inhibition assay, in which the sutures were cut into a 5 cm section and inoculated with about 10^5 cfu/suture in a Petri dish, a portion of 20 ml of TSA tempered at 47° C. was added into the Petri dish. The inoculum was mix thoroughly with the medium and the suture was placed in the middle of the plate. The inoculated plates were incubated at 37° C. for 48 hr and then the zone of inhibition was measured with a digital caliper.
as §1, with “DIMPTS. DIMPTS” for “LAE. LAE”, “DIMPTS” for “LAE”
(§2) A series of USP standard size 2-0 uncoated polyglactin 910 sutures were coated with coating compositions containing the combinations of LAE and DIMPTS. DIMPTS and LAE stock solutions were made in ethanol at concentration of 10%. The coating solutions were made by dissolving a L(−)lactide/glycolide copolymer containing 65 mole % lactide and 35 mole % glycolide (4.5%) and calcium stearate (4.5%) in ethyl acetate. Then, the DIMPTS and LAE stock solutions were added to the coating solution at sequential concentrations and mixed thoroughly. The sutures were hand coated by dipping into the coating solution containing antimicrobial composition and then air dried at room temperature for 8 hr. The antimicrobial efficacy and synergistic effect were evaluated by zone of inhibition assay, in which the sutures were cut into a 5 cm section and inoculated with about 10^5 cfu/suture in a Petri dish, a portion of 20 ml of TSA tempered at 47° C. was added into the Petri dish. The inoculum was mix thoroughly with the medium and the suture was placed in the middle of the plate. The inoculated plates were incubated at 37° C. for 48 hr and then the zone of inhibition was measured with a digital caliper.

[2] = test system: E. coli; test: Zone of inhibition assay of coated sutures; format: cell-based; conditions: coated 2-0 polyglactin 910 suture, 37° C. 48 hr
Procedure: as §1
(§3) A series of USP standard size 2-0 uncoated polyglactin 910 sutures were coated with coating compositions containing DIMPTS. DIMPTS stock solution was made in ethanol at the concentration of 10%. The coating solutions were made by dissolving a L(−)lactide/glycolide copolymer containing 65 mole % lactide and 35 mole % glycolide (4.5%) and calcium stearate (4.5%) in ethyl acetate. Then, the DIMPTS stock solution was added to the coating solution at sequential concentrations and mixed thoroughly. The sutures were hand coated by dipping into the coating solution containing antimicrobial composition and then air dried at room temperature for 8 hr. The antimicrobial efficacy was evaluated by zone of inhibition assay, in which the sutures were cut into a 5 cm section and inoculated with about 10^5 cfu/suture in a Petri dish, a portion of 20 ml of TSA tempered at 47° C. was added into the Petri dish. The inoculum was mix thoroughly with the medium and the suture was placed in the middle of the plate. The inoculated plates were incubated at 37° C. for 48 hr and then the zone of inhibition was measured with a digital caliper.
as §2

[3] = animals and humans; cited from earlier work
[4] = rats; cited from earlier work
[5] = test system: P. aeruginosa; test: In vitro antimicrobial efficacy, viable plate count after 24 hr culture; format: cell-based; conditions: 37° C. 24 hr, inoculum 10^6 CFU/ml
Procedure: (§4) The synergistic antimicrobial efficacy of the LAE and diiodomethyl-p-tolylsulfone ([…]) antimicrobial composition is illustrated by the results shown in Tables 1 and 2, and was determined by the following protocol. […] Sequential dilutions of the above two stock solutions were then prepared in sterile saline. […] Controls contained similar amounts of saline in the test culture with no LAE or […]. The test cultures were incubated at 37° C. for 24 hr, the total viable bacteria were numerated by plate count on Trypticase® soy agar (BBL) containing inactivating agent. The plates were incubated at 37° C. for 48 hr and reported as colony forming unit/ml (CFU/ml).

[6] = test system: S. aureus; test: as above; format: cell-based; conditions: 37° C. 24 hr, inoculum 10^6 CFU/ml
Procedure: as §4

[7] = test system: E. faecium; test: as above; format: cell-based; conditions: 37° C. 24 hr, inoculum 10^6 CFU/ml
Procedure: as §4

[8] = test system: E. coli; test: as above; format: cell-based; conditions: 37° C. 24 hr, inoculum 10^6 CFU/ml
Procedure: as §4

[9] = test system: C. albican; test: as above; format: cell-based; conditions: 37° C. 24 hr, inoculum 10^6 CFU/ml
Procedure: as §4

[10] = test system: C. albicans; test: Zone of inhibition assay of coated sutures; format: cell-based; conditions: coated 2-0 polyglactin 910 suture, 37° C. 48 hr
Procedure: as §1, §3

## CCCCCCCCCCCC(=O)N[C@@H](CCCN=C(N)N)C(=O)OCC.Cl [LAE, ethyl ester of the lauramide of the arginine monohydrochloride]
[1]; 0.5% in coating solution
  Zone of inhibition (mm): 0 mm
[1]; 1% in coating solution
  Zone of inhibition (mm): 1.5 mm
[1]; 2% in coating solution
  Zone of inhibition (mm): 3.2 mm
[2]; 0.5% in coating solution
  Zone of inhibition (mm): 0 mm
[2]; 1% in coating solution
  Zone of inhibition (mm): 1.0 mm
[2]; 2% in coating solution
  Zone of inhibition (mm): 2.0 mm
[3]
  toxicity: completely harmless
[4]
  absorption and metabolism: fast absorption and metabolism into naturally-occurring amino acids and the lauric acid
[5]; 10 ppm
  CFU/ml: 1.2 × 10^9 CFU/ml
[6]; 10 ppm
  CFU/ml: 1.1 × 10^9 CFU/ml
[7]; 10 ppm
  CFU/ml: 5 × 10^7 CFU/ml
[8]; 10 ppm
  CFU/ml: 1.1 × 10^9 CFU/ml
[9]; 10 ppm
  CFU/ml: 6 × 10^7 CFU/ml
[10]; 0.5% in coating solution
  Zone of inhibition (mm): 0 mm
[10]; 1% in coating solution
  Zone of inhibition (mm): 2.3 mm
[10]; 2% in coating solution
  Zone of inhibition (mm): 3.5 mm

## Cc1ccc(S(=O)(=O)C(I)I)cc1 [DIMPTS, diiodomethyl-p-tolylsulfone]
[1]; 0.1% in coating solution
  Zone of inhibition (mm): 0 mm
[1]; 0.5% in coating solution
  Zone of inhibition (mm): 3.0 mm
[1]; 1% in coating solution
  Zone of inhibition (mm): 4.3 mm
[2]; 0.1% in coating solution
  Zone of inhibition (mm): 0 mm
[2]; 0.5% in coating solution
  Zone of inhibition (mm): 0 mm
[2]; 1% in coating solution
  Zone of inhibition (mm): 1.0 mm
[5]; 10 ppm
  CFU/ml: 1.0 × 10^9 CFU/ml
[5]; 200 ppm
  CFU/ml: 4 × 10^8 CFU/ml
[6]; 0.5 ppm
  CFU/ml: 1.2 × 10^9 CFU/ml
[6]; 5 ppm
  CFU/ml: 2.4 × 10^6 CFU/ml
[7]; 0.5 ppm
  CFU/ml: 6 × 10^8 CFU/ml
[7]; 5 ppm
  CFU/ml: 3 × 10^8 CFU/ml
[8]; 10 ppm
  CFU/ml: 1.4 × 10^9 CFU/ml
[8]; 200 ppm
  CFU/ml: 1.1 × 10^5 CFU/ml
[9]; 0.5 ppm
  CFU/ml: 1 × 10^8 CFU/ml
[10]; 0.1% in coating solution
  Zone of inhibition (mm): 3.3 mm
[10]; 0.5% in coating solution
  Zone of inhibition (mm): 3.6 mm
[10]; 1% in coating solution
  Zone of inhibition (mm): 8.4 mm
